According to ChEMBL document CHEMBL3045535, “Evaluation of lufenuron as a chemosterilant against fruit flies of the genus Anastrepha (Diptera: Tephritidae)” (2010):
Activity calls are given as the source filed them. No cut-off for these calls is given here.

What was measured:
Anastrepha serpentina [1] = assay: Effect on fecundity in 7 days old adult of Anastrepha serpentina at 0.1 to 30 mg/g treated with diet after 24 hr; assay type: functional, organism-based
Anastrepha serpentina [2] = assay: Reduction of fertility in 7 days old adult of Anastrepha serpentina assessed as reduction of egg hatching at 10 mg/g treated with diet measured after 11 days oviposition; assay type: functional; design: scale not given: the % may be the effect or the level left
Anastrepha ludens [3] = assay: Reduction of fertility in 7 days old adult of Anastrepha ludens assessed as reduction of egg hatching at 10 mg/g treated with diet measured after 11 days oviposition; assay type: functional; design: scale not given: the % may be the effect or the level left
Anastrepha striata [4] = assay: Reduction of fertility in 7 days old adult of Anastrepha striata assessed as reduction of egg hatching at 0.5 mg/g treated with diet measured after 5 days oviposition; assay type: functional; design: scale not given: the % may be the effect or the level left
Anastrepha obliqua [5] = assay: Effect on fertility in 7 days old adult male of Anastrepha obliqua at 30 mg/g treated with diet after 24 hr in presence of untreated adult female of Anastrepha obliqua; assay type: functional, organism-based
Anastrepha ludens [6] = assay: Reduction of fertility in 7 days old adult of Anastrepha ludens assessed as reduction of egg hatching at 0.1 mg/g treated with diet measured after 1 day oviposition; assay type: functional; design: scale not given: the % may be the effect or the level left
Anastrepha serpentina [7] = assay: Reduction of fertility in 7 days old adult of Anastrepha serpentina assessed as reduction of egg hatching at 0.5 mg/g treated with diet measured after 5 days oviposition; assay type: functional; design: scale not given: the % may be the effect or the level left
Anastrepha striata [8] = assay: Reduction of fertility in 7 days old adult of Anastrepha striata assessed as reduction of egg hatching at 0.1 mg/g treated with diet measured after 7 days oviposition; assay type: functional; design: scale not given: the % may be the effect or the level left
Anastrepha obliqua [9] = assay: Reduction of fertility in 7 days old adult of Anastrepha obliqua assessed as reduction of egg hatching at 0.5 mg/g treated with diet measured after 3 days oviposition; assay type: functional; design: scale not given: the % may be the effect or the level left
Anastrepha striata [10] = assay: Reduction of fertility in 7 days old adult of Anastrepha striata assessed as reduction of egg hatching at 0.5 mg/g treated with diet measured after 9 days oviposition; assay type: functional; design: scale not given: the % may be the effect or the level left
Anastrepha ludens [11] = assay: Reduction of fertility in 7 days old adult of Anastrepha ludens assessed as reduction of egg hatching at 1 mg/g treated with diet measured after 5 days oviposition; assay type: functional; design: scale not given: the % may be the effect or the level left
Anastrepha ludens [12] = assay: Reduction of fertility in 7 days old adult of Anastrepha ludens assessed as reduction of egg hatching at 0.1 mg/g treated with diet measured after 7 days oviposition; assay type: functional; design: scale not given: the % may be the effect or the level left
Anastrepha ludens [13] = assay: Reduction of fertility in 7 days old adult of Anastrepha ludens assessed as reduction of egg hatching at 10 mg/g treated with diet measured after 1 day oviposition; assay type: functional; design: scale not given: the % may be the effect or the level left
Anastrepha striata [14] = assay: Reduction of fertility in 7 days old adult of Anastrepha striata assessed as reduction of egg hatching at 30 mg/g treated with diet measured after 5 days oviposition; assay type: functional; design: scale not given: the % may be the effect or the level left
Anastrepha obliqua [15] = assay: Reduction of fertility in 7 days old adult of Anastrepha obliqua assessed as reduction of egg hatching at 30 mg/g treated with diet measured after 7 days oviposition; assay type: functional; design: scale not given: the % may be the effect or the level left
Anastrepha obliqua [16] = assay: Reduction of fertility in 7 days old adult of Anastrepha obliqua assessed as reduction of egg hatching at 1 mg/g treated with diet measured after 9 days oviposition; assay type: functional; design: scale not given: the % may be the effect or the level left
Anastrepha ludens [17] = assay: Reduction of fertility in 7 days old adult of Anastrepha ludens assessed as reduction of egg hatching at 1 mg/g treated with diet measured after 1 day oviposition; assay type: functional; design: scale not given: the % may be the effect or the level left
Anastrepha ludens [18] = assay: Reduction of fertility in 7 days old adult of Anastrepha ludens assessed as reduction of egg hatching at 1 mg/g treated with diet measured after 9 days oviposition; assay type: functional; design: scale not given: the % may be the effect or the level left
Anastrepha striata [19] = assay: Reduction of fertility in 7 days old adult of Anastrepha striata assessed as reduction of egg hatching at 30 mg/g treated with diet measured after 1 day oviposition; assay type: functional; design: scale not given: the % may be the effect or the level left
Anastrepha obliqua [20] = assay: Reduction of fertility in 7 days old adult of Anastrepha obliqua assessed as reduction of egg hatching at 0.1 mg/g treated with diet measured after 9 days oviposition; assay type: functional; design: scale not given: the % may be the effect or the level left
Anastrepha striata [21] = assay: Reduction of fertility in 7 days old adult of Anastrepha striata assessed as reduction of egg hatching at 10 mg/g treated with diet measured after 9 days oviposition; assay type: functional; design: scale not given: the % may be the effect or the level left
Anastrepha striata [22] = assay: Reduction of fertility in 7 days old adult of Anastrepha striata assessed as reduction of egg hatching at 30 mg/g treated with diet measured after 11 days oviposition; assay type: functional; design: scale not given: the % may be the effect or the level left
Anastrepha striata [23] = assay: Reduction of fertility in 7 days old adult of Anastrepha striata assessed as reduction of egg hatching at 0.1 mg/g treated with diet measured after 5 days oviposition; assay type: functional; design: scale not given: the % may be the effect or the level left
Anastrepha obliqua [24] = assay: Reduction of fertility in 7 days old adult of Anastrepha obliqua assessed as reduction of egg hatching at 10 mg/g treated with diet measured after 3 days oviposition; assay type: functional; design: scale not given: the % may be the effect or the level left
Anastrepha ludens [25] = assay: Reduction of fertility in 7 days old adult of Anastrepha ludens assessed as reduction of egg hatching at 1 mg/g treated with diet measured after 3 days oviposition; assay type: functional; design: scale not given: the % may be the effect or the level left
Anastrepha ludens [26] = assay: Reduction of fertility in 7 days old adult of Anastrepha ludens assessed as reduction of egg hatching at 30 mg/g treated with diet measured after 9 days oviposition; assay type: functional; design: scale not given: the % may be the effect or the level left
Anastrepha ludens [27] = assay: Effect on fecundity in 7 days old adult male of Anastrepha ludens at 30 mg/g treated with diet after 24 hr in presence of untreated adult female of Anastrepha ludens; assay type: functional, organism-based
Anastrepha serpentina [28] = assay: Reduction of fertility in 7 days old adult of Anastrepha serpentina assessed as reduction of egg hatching at 5 mg/g treated with diet measured after 3 days oviposition; assay type: functional; design: scale not given: the % may be the effect or the level left
Anastrepha serpentina [29] = assay: Reduction of fertility in 7 days old adult of Anastrepha serpentina assessed as reduction of egg hatching at 0.1 mg/g treated with diet measured after 7 days oviposition; assay type: functional; design: scale not given: the % may be the effect or the level left
Anastrepha obliqua [30] = assay: Reduction of fertility in 7 days old adult of Anastrepha obliqua assessed as reduction of egg hatching at 0.5 mg/g treated with diet measured after 7 days oviposition; assay type: functional; design: scale not given: the % may be the effect or the level left
Anastrepha serpentina [31] = assay: Effect on fecundity in 7 days old adult male of Anastrepha serpentina at 30 mg/g treated with diet after 24 hr in presence of untreated adult female of Anastrepha serpentina; assay type: functional, organism-based
Anastrepha serpentina [32] = assay: Reduction of fertility in 7 days old adult of Anastrepha serpentina assessed as reduction of egg hatching at 1 mg/g treated with diet measured after 3 days oviposition; assay type: functional; design: scale not given: the % may be the effect or the level left
Anastrepha ludens [33] = assay: Reduction of fertility in 7 days old adult of Anastrepha ludens assessed as reduction of egg hatching at 0.5 mg/g treated with diet measured after 1 day oviposition; assay type: functional; design: scale not given: the % may be the effect or the level left
Anastrepha serpentina [34] = assay: Reduction of fertility in 7 days old adult of Anastrepha serpentina assessed as reduction of egg hatching at 5 mg/g treated with diet measured after 9 days oviposition; assay type: functional; design: scale not given: the % may be the effect or the level left
Anastrepha obliqua [35] = assay: Reduction of fertility in 7 days old adult of Anastrepha obliqua assessed as reduction of egg hatching at 0.1 mg/g treated with diet measured after 3 days oviposition; assay type: functional; design: scale not given: the % may be the effect or the level left
Anastrepha serpentina [36] = assay: Reduction of fertility in 7 days old adult of Anastrepha serpentina assessed as reduction of egg hatching at 30 mg/g treated with diet measured after 5 days oviposition; assay type: functional; design: scale not given: the % may be the effect or the level left
Anastrepha ludens [37] = assay: Reduction of fertility in 7 days old adult of Anastrepha ludens assessed as reduction of egg hatching at 0.1 mg/g treated with diet measured after 9 days oviposition; assay type: functional; design: scale not given: the % may be the effect or the level left
Anastrepha striata [38] = assay: Reduction of fertility in 7 days old adult of Anastrepha striata assessed as reduction of egg hatching at 10 mg/g treated with diet measured after 3 days oviposition; assay type: functional; design: scale not given: the % may be the effect or the level left
Anastrepha ludens [39] = assay: Reduction of fertility in 7 days old adult of Anastrepha ludens assessed as reduction of egg hatching at 5 mg/g treated with diet measured after 1 day oviposition; assay type: functional; design: scale not given: the % may be the effect or the level left
Anastrepha striata [40] = assay: Reduction of fertility in 7 days old adult of Anastrepha striata assessed as reduction of egg hatching at 0.5 mg/g treated with diet measured after 7 days oviposition; assay type: functional; design: scale not given: the % may be the effect or the level left
Anastrepha serpentina [41] = assay: Reduction of fertility in 7 days old adult of Anastrepha serpentina assessed as reduction of egg hatching at 5 mg/g treated with diet measured after 1 day oviposition; assay type: functional; design: scale not given: the % may be the effect or the level left

In the case of `O=C(NC(=O)c1c(F)cccc1F)Nc1cc(Cl)c(OC(F)(F)C(F)C(F)(F)F)cc1Cl` (racemic) [LUFENURON], the Activity (Anastrepha serpentina [1]) is reported as “Active”, the Activity (Anastrepha serpentina [2]) is reported as 79.3% and the Activity (Anastrepha ludens [3]) is reported as 16.7%. For the same compound, the Activity (Anastrepha striata [4]) was 14%, the Activity (Anastrepha obliqua [5]) was “inactive” and the Activity (Anastrepha ludens [6]) was 26.7%. It also gave an Activity (Anastrepha serpentina [7]) of 93.3%, an Activity (Anastrepha striata [8]) of 72% and an Activity (Anastrepha obliqua [9]) of 2.7%. For the same compound, the Activity (Anastrepha striata [10]) was 40.7%, the Activity (Anastrepha ludens [11]) was 8% and the Activity (Anastrepha ludens [12]) was 43.3%. The Activity (Anastrepha ludens [13]) was 6%, the Activity (Anastrepha striata [14]) was 4% and the Activity (Anastrepha obliqua [15]) was 0.7%. The Activity (Anastrepha obliqua [16]) was 0%, the Activity (Anastrepha ludens [17]) was 8% and the Activity (Anastrepha ludens [18]) was 20%. The Activity (Anastrepha striata [19]) was 8.7%, the Activity (Anastrepha obliqua [20]) was 6% and the Activity (Anastrepha striata [21]) was 6%. For the same compound, the Activity (Anastrepha striata [22]) was 8%, the Activity (Anastrepha striata [23]) was 60.7% and the Activity (Anastrepha obliqua [24]) was 1.3%. The Activity (Anastrepha ludens [25]) was 9.3%, the Activity (Anastrepha ludens [26]) was 15.3% and the Activity (Anastrepha ludens [27]) was “inactive”. The Activity (Anastrepha serpentina [28]) was 58.9%, the Activity (Anastrepha serpentina [29]) was 96.7% and the Activity (Anastrepha obliqua [30]) was 0.7%. The Activity (Anastrepha serpentina [31]) was “inactive”, the Activity (Anastrepha serpentina [32]) was 71.1% and the Activity (Anastrepha ludens [33]) was 8.7%. The Activity (Anastrepha serpentina [34]) was 83.3%, the Activity (Anastrepha obliqua [35]) was 7.3% and the Activity (Anastrepha serpentina [36]) was 78.4%. The Activity (Anastrepha ludens [37]) was 44.7%, the Activity (Anastrepha striata [38]) was 10.7% and the Activity (Anastrepha ludens [39]) was 19.3%. For the same compound, the Activity (Anastrepha striata [40]) was 19.3% and the Activity (Anastrepha serpentina [41]) was 34.8%.
